Changes are numbered by the printed parent chain. Ends that are not written are not given here.
Experiments:
Assay type in all cases: cell-based
ADGRF1 [1] = molecular target: T1, ADGRF1 (Homo sapiens, UniProt Q5T601, K791A); assay: BRET assay using TRUPATH biosensors, Gi activation of ADGRF1; settings: ADGRF1 K791^6.40bA
T1 construct: Flag (N); expressed in transfected cells; host or cells: HEK293F
T1 sequence (Q5T601 20-910 K791A): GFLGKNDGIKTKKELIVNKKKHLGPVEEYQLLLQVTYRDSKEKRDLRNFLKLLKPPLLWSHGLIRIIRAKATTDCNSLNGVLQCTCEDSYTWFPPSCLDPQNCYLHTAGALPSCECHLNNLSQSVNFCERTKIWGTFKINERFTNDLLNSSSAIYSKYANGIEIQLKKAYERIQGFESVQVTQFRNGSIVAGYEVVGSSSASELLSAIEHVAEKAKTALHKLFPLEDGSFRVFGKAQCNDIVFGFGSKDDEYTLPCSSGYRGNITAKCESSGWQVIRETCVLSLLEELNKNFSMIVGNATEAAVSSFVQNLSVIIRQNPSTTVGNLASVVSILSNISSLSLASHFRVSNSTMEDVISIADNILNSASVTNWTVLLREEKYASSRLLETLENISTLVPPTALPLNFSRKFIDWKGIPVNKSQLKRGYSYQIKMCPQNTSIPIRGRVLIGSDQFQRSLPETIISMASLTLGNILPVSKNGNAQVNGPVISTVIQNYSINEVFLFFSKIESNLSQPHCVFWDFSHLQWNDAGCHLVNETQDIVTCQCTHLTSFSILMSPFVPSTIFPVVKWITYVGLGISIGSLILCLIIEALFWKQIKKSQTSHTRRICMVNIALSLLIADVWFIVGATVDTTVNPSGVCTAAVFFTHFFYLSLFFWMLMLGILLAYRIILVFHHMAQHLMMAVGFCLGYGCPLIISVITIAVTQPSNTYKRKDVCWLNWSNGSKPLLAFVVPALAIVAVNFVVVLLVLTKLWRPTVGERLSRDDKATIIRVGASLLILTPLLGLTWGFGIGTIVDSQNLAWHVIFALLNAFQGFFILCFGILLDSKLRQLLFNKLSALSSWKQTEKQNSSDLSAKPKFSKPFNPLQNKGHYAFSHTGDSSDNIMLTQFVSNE
Summary of the method: (§1)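 G protein activation by synthetic stalk peptides, read as GFP2-to-RLuc8 emission ratio from the fifth of five successive readings. Cells: HEK293F expressing receptor (WT or mutant) with GαsS-RLuc8 or Gαi1-RLuc8 plus Gβ3 and Gγ9-GFP2 (2:1:1:1). Pre-incubated 30 min at 37 °C; substrate coelenterazine 400a.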

ADGRF1 [2] = molecular target: T2, ADGRF1 (Homo sapiens, UniProt Q5T601, W804A); assay: as above; settings: ADGRF1 W804^6.53bA
T2 construct: Flag (N); expressed in transfected cells; host or cells: HEK293F
Summary of the method: as §1

ADGRF1 [3] = molecular target: T3, ADGRF1 (Homo sapiens, UniProt Q5T601, R623A); assay: BRET assay using TRUPATH biosensors, Gs activation of ADGRF1; settings: Gs, ADGRF1 R623^2.46bA, n = 3
T3 construct: Flag (N); expressed in transfected cells; host or cells: HEK293F
T3 sequence (Q5T601 20-910 R623A): T1 sequence (Q5T601 20-910 K791A) with R604A, A772K
Description: To study the synthetic stalk peptide-induced G protein activation of ADGRD1 and ADGRF1, a BRET assay using TRUPATH biosensors was conducted to measure the proximal interaction between RLuc8 fused to the Gα subunit and GFP2 fused to the Gγ subunit. The TRUPATH suite of biosensors was obtained from Addgene (Addgene kit no. 1000000163) as a gift from B. Roth, including GαsS-RLuc8, Gαi1-RLuc8, Gβ3 and Gγ9-GFP2 as previously described.
The wild-type or mutant ADGRD1 and ADGRF1 were transiently co-transfected with plasmids encoding Gα-RLuc8 (GαsS-RLuc8 for Gs activation assay; Gαi1-RLuc8 for Gi activation assay), Gβ3 and Gγ9-GFP2 at a ratio of 2:1:1:1 (receptor plasmid, 800 ng; G protein subunit plasmids, 400 ng for each) in 2 ml HEK293F cells at a density of 1.2 × 10^6 cells per ml. Cell cultivation and receptor surface expression measurement were performed as described above. The cells were plated into 96-well white plates (40,000 cells per well) in 60 μl of assay buffer and incubated at 37 °C for 30 min. Then 10 μl of freshly prepared 50 μM coelenterazine 400a (Nanolight Technologies) was added. […] The cells were stimulated with 30 μl of synthetic stalk peptide at different concentrations and the BRET signals were monitored continuously five times. The last measurements were used in data analysis. The BRET ratios were calculated as the ratio of the GFP2 emission to RLuc8 emission.

T2 sequence (Q5T601 20-910 W804A): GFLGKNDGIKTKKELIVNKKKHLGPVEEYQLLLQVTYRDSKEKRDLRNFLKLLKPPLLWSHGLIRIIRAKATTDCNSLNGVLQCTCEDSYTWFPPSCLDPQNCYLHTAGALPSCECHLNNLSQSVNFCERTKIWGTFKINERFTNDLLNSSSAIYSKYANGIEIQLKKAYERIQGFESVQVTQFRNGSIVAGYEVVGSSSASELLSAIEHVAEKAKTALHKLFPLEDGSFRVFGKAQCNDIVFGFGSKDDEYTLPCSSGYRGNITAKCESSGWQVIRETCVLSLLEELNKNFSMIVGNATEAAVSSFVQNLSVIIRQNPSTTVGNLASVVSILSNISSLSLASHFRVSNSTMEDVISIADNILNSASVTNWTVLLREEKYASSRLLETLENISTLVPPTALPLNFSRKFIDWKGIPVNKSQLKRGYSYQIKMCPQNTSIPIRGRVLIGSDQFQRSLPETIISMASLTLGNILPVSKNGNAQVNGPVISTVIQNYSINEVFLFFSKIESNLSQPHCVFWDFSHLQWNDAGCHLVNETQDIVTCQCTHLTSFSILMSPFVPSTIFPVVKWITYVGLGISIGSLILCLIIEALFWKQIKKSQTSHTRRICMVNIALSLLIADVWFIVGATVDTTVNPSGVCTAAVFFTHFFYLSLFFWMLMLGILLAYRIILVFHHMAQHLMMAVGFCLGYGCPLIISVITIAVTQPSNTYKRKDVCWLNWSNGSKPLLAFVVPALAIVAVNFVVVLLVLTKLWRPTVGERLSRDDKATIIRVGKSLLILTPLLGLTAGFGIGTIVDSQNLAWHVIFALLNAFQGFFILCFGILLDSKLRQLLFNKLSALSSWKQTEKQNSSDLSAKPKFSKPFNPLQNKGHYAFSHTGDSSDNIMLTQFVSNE

Emax (mean ± s.e.m.) (ADGRF1 [1]; n = 3): 102 ± 13 % of WT
EC50 (ADGRF1 [1]; n = 3, read-out: pEC50 (mean ± s.e.m.) (converted)): 0.102 µM
Emax (mean ± s.e.m.) (ADGRF1 [2]; n = 4): 86 ± 19 % of WT
EC50 (ADGRF1 [2]; n = 4, read-out: pEC50 (mean ± s.e.m.) (converted)): 0.977 µM
Emax (mean ± s.e.m.) (ADGRF1 [3]): 57 ± 10 % of WT
EC50 (ADGRF1 [3]; read-out: pEC50 (mean ± s.e.m.) (converted)): 0.148 µM
Sequence: TSFSILMSPFVP [pF1]

— publication PMC9046087, “Structural basis of tethered agonism of the adhesion GPCRs ADGRD1 and ADGRF1” (Nature, 2022)
